From patent publication US7517874B2 (priority 2007, dated 2009)
Read-outs that look alike come from different tables or passages of the source.

Legend:
[1] = biological target: human CB1 receptor (hCB1) (Homo sapiens, UniProt P21554); assay: cell-based; format: cell-based
Method: (§1) The ability of compounds to act as agonists or inverse agonists at human CB2 and CB1 receptors (hCB2, hCB1, respectively) and at the rat CB2 receptor (rCB2) was determined by measuring changes in intracellular cAMP levels. Chinese Hamster Ovary (CHO-K1) cell lines stably expressing hCB2 (Genebank: X74328) or hCB1 (Genebank: X54937) were purchased from Euroscreen (Gosselies, Belgium). The rat CB2 receptor was expressed from genomic DNA (provided by M. Abood, California Pacific Medical Center) in CHO-K1 cells from expression plasmid vector, pcDNA3.1.
(§2) Cell lines were grown in suspension in EX-CELL 302 CHO Serum-free medium (Sigma, cat #14324C) supplemented with 1% Fetal Bovine Serum, glutamine and non-essential amino-acids under 0.4 mg/mL G418 selection.
(§3) Receptor mediated responses were determined by measuring changes in intracellular cAMP using LANCE cAMP detection kit (cat #AD0264, Perkin Elmer, Wellesley, Mass.) based on time-resolved fluorescence resonance energy transfer (TR-FRET). Changes in cAMP were determined in cells pre-incubated with IBMX (isobutyl methylxanthine) and prestimulated with NKH-477 (a water soluble forskolin derivative, cat #1603, Tocris, Ellisville, Mo.) to increase basal cAMP levels as detailed below.
(§4) On the day of the experiment, cells were spun at low speed for 5 min at room temperature. The supernatant was removed and cells were resuspended in stimulation buffer (Hanks Buffered Salt Solution/5 mM HEPES, containing 0.5 mM IBMX (cat #17018, Sigma) and 0.02% BSA (Perkin-Elmer, cat #CR84-100)). Cell clumps were removed by filtering through cell strainer 40 μm (BD Falcon, Discovery Labware, Bedford, Mass.) and diluted to 2×10^5 cells/mL. Antibody supplied with the LANCE cAMP immunoassay kit was then added according to the manufacturer's instructions. An aliquot of cells was taken for un-induced controls. To the remaining cells was added NKH-477 (a water soluble forskolin derivative, Tocris cat #1603) to a final concentration of 2-8 μM. Cells were then incubated for 30 min at room temperature prior to adding to Proxiplates containing test compounds (final DMSO concentration was less than 0.5%) with a Multidrop bulk dispenser, followed by a sixty minute incubation at room temperature. The response was stopped by addition of the detection mix supplied with the LANCE kit. The reagents were allowed to equilibrate for three hours prior to reading on an Envision multi-mode detector (Perkin-Elmer). TR-FRET was measured using a 330-380 nm excitation filter, a 665 nm emission filter, dichroic mirror 380 nm and Z=1 mm. Cyclic AMP concentrations in each well were back-calculated from a cAMP standard curve run concurrently during each assay. Each plate contained 16 wells of forskolin stimulated cells and 16 wells of forskolin plus CP55,940-treated cells. Cells were treated with 1 μM CP55,940 (Tocris cat. #0949). Concentrations of cAMP were expressed as a percent of the difference of these two groups of wells. Concentration-response data including EC50 (the concentration of compound producing 50% of the maximal response) and intrinsic activity (the percent maximal activation compared to full activation by CP55,940) were determined using a four-parameter non-linear regression algorithm (Xlfit equation 251, IDBS).

rat CB2 receptor (rCB2) = biological target: T1, rat CB2 receptor (rCB2) (Rattus norvegicus, UniProt Q9QZN9); assay: cell-based; format: cell-based; conditions: for +/− RCB2: agonist or inverse agonist at rCB2
T1 sequence (Q9QZN9 1-360): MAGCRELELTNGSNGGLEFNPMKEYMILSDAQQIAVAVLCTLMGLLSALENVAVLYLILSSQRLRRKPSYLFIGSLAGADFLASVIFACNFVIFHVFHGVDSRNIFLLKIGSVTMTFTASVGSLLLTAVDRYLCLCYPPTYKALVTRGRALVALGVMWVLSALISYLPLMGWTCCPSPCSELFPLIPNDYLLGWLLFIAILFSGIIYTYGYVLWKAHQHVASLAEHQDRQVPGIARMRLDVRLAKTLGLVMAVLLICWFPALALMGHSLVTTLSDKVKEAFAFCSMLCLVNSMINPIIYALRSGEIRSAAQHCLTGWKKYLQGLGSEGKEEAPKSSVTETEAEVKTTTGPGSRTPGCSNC
Method: as §1, §2, §3, §4

[2] = groups >100 nM-10 μM and >10 μM, cAMP, CHO-K1 hCB1, read-out: EC50 HCB1
[3] = groups >100 nM-10 μM and >10 μM, cAMP, CHO-K1 rCB2, read-out: EC50 RCB2

human CB1 receptor (hCB1), sequence (P21554 whole entry): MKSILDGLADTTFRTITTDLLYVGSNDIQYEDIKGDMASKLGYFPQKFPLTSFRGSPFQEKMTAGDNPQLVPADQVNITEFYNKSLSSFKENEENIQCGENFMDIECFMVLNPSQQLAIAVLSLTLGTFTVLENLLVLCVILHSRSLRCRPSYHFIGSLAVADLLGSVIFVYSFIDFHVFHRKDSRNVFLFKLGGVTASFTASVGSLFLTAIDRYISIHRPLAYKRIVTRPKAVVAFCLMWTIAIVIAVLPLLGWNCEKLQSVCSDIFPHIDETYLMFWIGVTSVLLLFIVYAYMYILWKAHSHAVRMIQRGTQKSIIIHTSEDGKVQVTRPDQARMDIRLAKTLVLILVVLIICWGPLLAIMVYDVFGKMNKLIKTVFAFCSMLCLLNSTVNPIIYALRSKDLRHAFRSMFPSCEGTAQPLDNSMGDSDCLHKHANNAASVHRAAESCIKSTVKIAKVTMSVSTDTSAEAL

| SMILES | EC50 [1] | EC50 (rat CB2 receptor (rCB2)) | +/− RCB2 (rat CB2 receptor (rCB2)) | EC50 [1, 2] | EC50 (rat CB2 receptor (rCB2); [3]) |
| --- | --- | --- | --- | --- | --- |
| CNC(=O)[C@@H](NC(=O)c1nc(-c2ccc(F)cc2)n2c1CNCC2)C(C)(C)C [Compound 6, (S)-N-(3,3-dimethyl-1-(methylamino)-1-oxobutan-2-yl)-3-(4-fluorophenyl)-5,6,7,8-tetrahydroimidazo[1,5-a]pyrazine-1-carboxamide] | > 10000 nM | > 10000 nM |  |  |  |
| CNC(=O)[C@@H](NC(=O)c1nc(-c2ccc(F)c(C)c2)n2c1CNCC2)C(C)(C)C [Compound 7, (S)-N-(3,3-dimethyl-1-(methylamino)-1-oxobutan-2-yl)-3-(4-fluoro-3-methylphenyl)-5,6,7,8-tetrahydroimidazo[1,5-a]pyrazine-1-carboxamide] | > 10000 nM |  | − |  |  |
| CNC(=O)[C@@H](NC(=O)c1nc(-c2cccc(C)c2)n2c1CNCC2)C(C)(C)C [Compound 8, (S)-N-(3,3-dimethyl-1-(methylamino)-1-oxobutan-2-yl)-3-m-tolyl-5,6,7,8-tetrahydroimidazo[1,5-a]pyrazine-1-carboxamide] | > 10000 nM |  | − |  |  |
| CNC(=O)[C@@H](NC(=O)c1nc(-c2ccc(Cl)cc2)n2c1CNCC2)C(C)(C)C [Compound 9, (S)-3-(4-chlorophenyl)-N-(3,3-dimethyl-1-(methylamino)-1-oxobutan-2-yl)-5,6,7,8-tetrahydroimidazo[1,5-a]pyrazine-1-carboxamide] | > 10000 nM |  | − |  |  |
| CNC(=O)[C@@H](NC(=O)c1nc(-c2ccccc2Cl)n2c1CNCC2)C(C)(C)C [Compound 10, (S)-3-(2-chlorophenyl)-N-(3,3-dimethyl-1-(methylamino)-1-oxobutan-2-yl)-5,6,7,8-tetrahydroimidazo[1,5-a]pyrazine-1-carboxamide] | > 10000 nM |  | + |  |  |
| CNC(=O)[C@@H](NC(=O)c1nc(-c2ccsc2)n2c1CNCC2)C(C)(C)C [Compound 11, (S)-N-(3,3-dimethyl-1-(methylamino)-1-oxobutan-2-yl)-3-(thiophen-3-yl)-5,6,7,8-tetrahydroimidazo[1,5-a]pyrazine-1-carboxamide] | > 10000 nM |  | + |  |  |
| CNC(=O)[C@@H](NC(=O)c1nc(-c2ccoc2)n2c1CNCC2)C(C)(C)C [Compound 12, (S)-N-(3,3-dimethyl-1-(methylamino)-1-oxobutan-2-yl)-3-(furan-3-yl)-5,6,7,8-tetrahydroimidazo[1,5-a]pyrazine-1-carboxamide] | > 10000 nM |  | − |  |  |
| CNC(=O)[C@@H](NC(=O)c1nc(Cc2ccccc2)n2c1CNCC2)C(C)(C)C [Compound 13, (S)-3-benzyl-N-(3,3-dimethyl-1-(methylamino)-1-oxobutan-2-yl)-5,6,7,8-tetrahydroimidazo[1,5-a]pyrazine-1-carboxamide] | > 10000 nM | > 10000 nM |  |  |  |
| CNC(=O)[C@@H](NC(=O)c1nc(-c2cccnc2)n2c1CNCC2)C(C)(C)C [Compound 14, (S)-N-(3,3-dimethyl-1-(methylamino)-1-oxobutan-2-yl)-3-(pyridin-3-yl)-5,6,7,8-tetrahydroimidazo[1,5-a]pyrazine-1-carboxamide] | > 10000 nM |  | + |  |  |
| CNC(=O)[C@@H](NC(=O)c1nc(-c2ccco2)n2c1CNCC2)C(C)(C)C [Compound 15, (S)-N-(3,3-dimethyl-1-(methylamino)-1-oxobutan-2-yl)-3-(furan-2-yl)-5,6,7,8-tetrahydroimidazo[1,5-a]pyrazine-1-carboxamide] | > 10000 nM |  | + |  |  |
| CNC(=O)[C@@H](NC(=O)c1nc(-c2cccs2)n2c1CNCC2)C(C)(C)C [Compound 16, (S)-N-(3,3-dimethyl-1-(methylamino)-1-oxobutan-2-yl)-3-(thiophen-2-yl)-5,6,7,8-tetrahydroimidazo[1,5-a]pyrazine-1-carboxamide] | > 10000 nM |  | + |  |  |
| CNC(=O)[C@@H](NC(=O)c1nc(-c2cnn(C)c2)n2c1CNCC2)C(C)(C)C [Compound 17, (S)-N-(3,3-dimethyl-1-(methylamino)-1-oxobutan-2-yl)-3-(1-methyl-1H-pyrazol-4-yl)-5,6,7,8-tetrahydroimidazo[1,5-a]pyrazine-1-carboxamide] |  |  |  | > 10000 nM | > 10000 nM |
| CNC(=O)[C@@H](NC(=O)c1nc(-c2cccc(Cl)c2)n2c1CNCC2)C(C)(C)C [Compound 18, (S)-3-(3-chlorophenyl)-N-(3,3-dimethyl-1-(methylamino)-1-oxobutan-2-yl)-5,6,7,8-tetrahydroimidazo[1,5-a]pyrazine-1-carboxamide] | > 10000 nM |  | − |  |  |
| CNC(=O)[C@@H](NC(=O)c1nc(-c2cncnc2)n2c1CNCC2)C(C)(C)C [Compound 19, (S)-N-(3,3-dimethyl-1-(methylamino)-1-oxobutan-2-yl)-3-(pyrimidin-5-yl)-5,6,7,8-tetrahydroimidazo[1,5-a]pyrazine-1-carboxamide] | > 10000 nM | > 10000 nM |  |  |  |
| CNC(=O)[C@@H](NC(=O)c1nc(-c2cscc2C)n2c1CNCC2)C(C)(C)C [Compound 21, (S)-N-(3,3-dimethyl-1-(methylamino)-1-oxobutan-2-yl)-3-(4-methylthiophen-3-yl)-5,6,7,8-tetrahydroimidazo[1,5-a]pyrazine-1-carboxamide] | > 10000 nM |  | + |  |  |
| CC(C)(C)[C@@H](CO)NC(=O)c1nc(-c2ccccc2)n2c1CNCC2 [Compound 22, (S)-N-(1-hydroxy-3,3-dimethylbutan-2-yl)-3-phenyl-5,6,7,8-tetrahydroimidazo[1,5-a]pyrazine-1-carboxamide] | > 10000 nM |  | − |  |  |
| CC(C)(C)[C@H](CO)NC(=O)c1nc(-c2ccccc2)n2c1CNCC2 [Compound 23, (R)-N-(1-hydroxy-3,3-dimethylbutan-2-yl)-3-phenyl-5,6,7,8-tetrahydroimidazo[1,5-a]pyrazine-1-carboxamide] | > 10000 nM |  | + |  |  |
| CC(C)(C)CNC(=O)c1nc(-c2ccccc2)n2c1CNCC2 [Compound 24, N-neopentyl-3-phenyl-5,6,7,8-tetrahydroimidazo[1,5-a]pyrazine-1-carboxamide] |  |  |  | > 10000 nM | > 10000 nM |
| O=C(c1nc(-c2ccccc2)n2c1CNCC2)N1CCOCC1 [Compound 25, morpholino(3-phenyl-5,6,7,8-tetrahydroimidazo[1,5-a]pyrazin-1-yl)methanone] |  |  |  | > 10000 nM | > 10000 nM |
| C[C@@H](NC(=O)c1nc(-c2ccccc2)n2c1CNCC2)C(C)(C)C [Compound 26, (R)-N-(3,3-dimethylbutan-2-yl)-3-phenyl-5,6,7,8-tetrahydroimidazo[1,5-a]pyrazine-1-carboxamide] | > 10000 nM | > 10000 nM |  |  |  |
| C[C@H](NC(=O)c1nc(-c2ccccc2)n2c1CNCC2)C(C)(C)C [Compound 27, (s)-N-(3,3-dimethylbutan-2-yl)-3-phenyl-5,6,7,8-tetrahydroimidazo[1,5-a]pyrazine-1-carboxamide] | > 10000 nM | > 10000 nM |  |  |  |
| CNC(=O)[C@H](C)NC(=O)c1nc(-c2ccccc2)n2c1CNCC2 [Compound 28, (S)-N-(1-(methylamino)-1-oxopropan-2-yl)-3-phenyl-5,6,7,8-tetrahydroimidazo[1,5-a]pyrazine-1-carboxamide] |  |  |  | > 10000 nM | > 10000 nM |
